The values below are quoted from earlier work in patent publication US20230048872A1, “COMPOSITIONS AND METHODS FOR DIAGNOSING OR TREATING NEUTROPHIL-MEDIATED INFLAMMATORY DISEASE” (THE BOARD OF TRUSTEES OF THE UNIVERSITY OF ILLINOIS, priority 2013, published 2023).

For the molecule `Oc1cc(O)cc(/C=C/c2ccc(O)c(O)c2)c1` [Piceatannol, piceatannol], the solubility in water result is on record as “low”.
